Measurements taken from ChEMBL document CHEMBL4261619, “Sentulic acid isolated from Sandoricum koetjape Merr attenuates lipopolysaccharide and interferon gamma co-stimulated nitric oxide production in murine macrophage RAW264 cells” (Bioorg Med Chem Lett, 2018).
The source made the active and inactive calls. No cut-off for these calls is given here.

Key:
[1] = biological target: T1, Toll-like receptor 4 (Mus musculus) (UniProt Q9QUK6); experiment: Inhibition of LPS binding to TLR4 in IFNgamma-stimulated mouse RAW264.7 cells assessed as reduction in nitric oxide production at 25 to 100 uM pretreated for 2 hrs followed by LPS/IFNgamma stimulation and measured after 24 hrs; assay type: cell-based
T1 sequence (whole entry): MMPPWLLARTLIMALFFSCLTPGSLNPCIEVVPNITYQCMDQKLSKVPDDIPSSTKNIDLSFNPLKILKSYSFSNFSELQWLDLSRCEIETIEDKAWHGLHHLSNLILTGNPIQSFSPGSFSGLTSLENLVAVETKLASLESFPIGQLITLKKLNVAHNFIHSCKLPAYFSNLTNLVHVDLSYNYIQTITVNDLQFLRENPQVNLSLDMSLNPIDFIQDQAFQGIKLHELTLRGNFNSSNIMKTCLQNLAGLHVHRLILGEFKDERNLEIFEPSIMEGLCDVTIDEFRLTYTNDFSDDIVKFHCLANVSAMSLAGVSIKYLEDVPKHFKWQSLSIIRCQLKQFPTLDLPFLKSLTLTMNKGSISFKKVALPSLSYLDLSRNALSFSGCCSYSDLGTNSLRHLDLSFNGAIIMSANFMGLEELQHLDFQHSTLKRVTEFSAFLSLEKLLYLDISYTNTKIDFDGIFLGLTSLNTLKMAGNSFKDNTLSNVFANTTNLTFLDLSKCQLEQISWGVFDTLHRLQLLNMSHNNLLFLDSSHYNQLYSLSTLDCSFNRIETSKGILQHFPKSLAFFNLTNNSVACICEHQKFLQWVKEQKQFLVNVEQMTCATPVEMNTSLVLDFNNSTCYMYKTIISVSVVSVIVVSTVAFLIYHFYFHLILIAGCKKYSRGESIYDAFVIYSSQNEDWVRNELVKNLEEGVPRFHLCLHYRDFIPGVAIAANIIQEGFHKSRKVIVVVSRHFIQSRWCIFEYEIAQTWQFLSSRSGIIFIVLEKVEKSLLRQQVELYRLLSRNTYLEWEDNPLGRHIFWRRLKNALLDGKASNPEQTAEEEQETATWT

[2] = biological target: T1, Toll-like receptor 4 (Mus musculus); experiment: Inhibition of LPS binding to TLR4 in IFNgamma-stimulated mouse RAW264.7 cells assessed as reduction in nitric oxide production pretreated for 2 hrs followed by LPS/IFNgamma stimulation and measured after 24 hrs; assay type: cell-based

Structure (SMILES)	inhibition [1]	inhibition [2]
CC1(C)CC[C@]2(C(=O)O)CC[C@]3(C)C(=CC[C@@H]4[C@@]5(C)CC[C@H](O)C(C)(C)[C@@H]5CC[C@]43C)[C@@H]2C1	inactive	–
C=C(C)[C@@H]1CC[C@]2(C(=O)O)CC[C@]3(C)[C@H](CC[C@@H]4[C@@]5(C)CC[C@H](O)C(C)(C)[C@@H]5CC[C@]43C)[C@@H]12	inactive	–
C[C@H]1[C@H](C)CC[C@]2(C(=O)O)CC[C@]3(C)C(=CC[C@@H]4[C@@]5(C)CC[C@H](O)C(C)(C)[C@@H]5CC[C@]43C)[C@H]12	–	Dose-dependent effect
CC1(C)CC[C@]2(C)CC[C@]3(C(=O)O)C(=CC[C@@H]4[C@@]5(C)CCC(=O)C(C)(C)[C@@H]5CC[C@]43C)[C@@H]2C1	inactive	–
CC1(C)[C@@H](O)CC[C@]2(C)[C@H]3C(=O)C=C4[C@@H]5C[C@@](C)(C(=O)O)CC[C@]5(C)CC[C@@]4(C)[C@]3(C)CC[C@@H]12	inactive	–
